Several values for one entry are separate records, joined by “and”; a condition that tells them apart may be missing. Identical values can stand only once.
System: 699152-130-R-J1-PDC complex spheroid growth
Test: Anticancer human tumor 699152-130-R-J1-PDC patient-derived pancreatic carcinoma cell line growth inhibition [AhR]
Details: for viability, T/C: stronger effect = lower value
How it was run: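 Spheroids combined tumor cells with HUVEC endothelial cells and human MSCs as stroma. AhR antagonists were paired with standard or investigational drugs, each dosed in half-log steps down from near clinical Cmax, or from 10 microM where Cmax was unknown.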

[1] = curve of first compound, second compound 0.1 µM
[2] = curve of first compound, second compound 0.316 µM
[3] = curve of first compound, second compound 1 µM
[4] = curve of first compound, second compound 3.16 µM
[5] = curve of first compound, second compound 10 µM
[6] = second compound 0.1 µM, first compound 0.0316 µM
[7] = second compound 0.1 µM, first compound 0.1 µM
[8] = second compound 0.316 µM, first compound 0.0316 µM
[9] = second compound 0.316 µM, first compound 0.1 µM
[10] = second compound 1 µM, first compound 0.0316 µM
[11] = second compound 1 µM, first compound 0.1 µM
[12] = second compound 3.16 µM, first compound 0.0316 µM
[13] = second compound 3.16 µM, first compound 0.1 µM
[14] = second compound 10 µM, first compound 0.0316 µM
[15] = second compound 10 µM, first compound 0.1 µM
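Also: compound exposure lasted 7 days after spheroids had grown for 3 days.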

Compound: COc1cc(Nc2ncc3c(n2)-c2ccc(Cl)cc2C(c2c(F)cccc2OC)=NC3)ccc1C(=O)O + Cc1ccccc1N=Nc1ccc(NC(=O)c2ccnn2C)c(C)c1
- IC50 [1]: > 10000 nM
- IC50 [2]: 6410 nM
- IC50 [3]: > 10000 nM
- IC50 [4]: > 10000 nM
- IC50 [5]: > 10000 nM
- viability, T/C [6]: 89.9%
- viability, T/C [7]: 80.2%
- viability, T/C (second compound 0.1 µM, first compound 0.316 µM): 65.3%
- viability, T/C (second compound 0.1 µM, first compound 1 µM): 54.5%
- viability, T/C (second compound 0.1 µM, first compound 3.16 µM): 54.4%
- viability, T/C (second compound 0.1 µM, first compound 10 µM): 56.6%
- viability, T/C [8]: 83.1%
- viability, T/C [9]: 68.7%
- viability, T/C (second compound 0.316 µM, first compound 0.316 µM): 65.5%
- viability, T/C (second compound 0.316 µM, first compound 1 µM): 59.5%
- viability, T/C (second compound 0.316 µM, first compound 3.16 µM): 51.7%
- viability, T/C (second compound 0.316 µM, first compound 10 µM): 48.4%
- viability, T/C [10]: 86.8%
- viability, T/C [11]: 71.7%
- viability, T/C (second compound 1 µM, first compound 0.316 µM): 74.3%
- viability, T/C (second compound 1 µM, first compound 1 µM): 60.5%
- viability, T/C (second compound 1 µM, first compound 3.16 µM): 56.9%
- viability, T/C (second compound 1 µM, first compound 10 µM): 51.7%
- viability, T/C [12]: 86.3%
- viability, T/C [13]: 82.6%
- viability, T/C (second compound 3.16 µM, first compound 0.316 µM): 68.9%
- viability, T/C (second compound 3.16 µM, first compound 1 µM): 61.1%
- viability, T/C (second compound 3.16 µM, first compound 3.16 µM): 54.2%
- viability, T/C (second compound 3.16 µM, first compound 10 µM): 50.1%
- viability, T/C [14]: 91.7%
- viability, T/C [15]: 94.7%
- viability, T/C (second compound 10 µM, first compound 0.316 µM): 74.8%
- viability, T/C (second compound 10 µM, first compound 1 µM): 64.8%
- viability, T/C (second compound 10 µM, first compound 3.16 µM): 66.8%
- viability, T/C (second compound 10 µM, first compound 10 µM): 63.6%

Compound: CC(C)CC(NC(=O)C(Cc1ccccc1)NC(=O)c1cnccn1)B(O)O (configuration not stated)
- viability, T/C (compound 0.000949 µM): 107% and 97.5% and 95.3%
- viability, T/C (compound 0.003 µM): 107% and 101% and 94.5%
- viability, T/C (compound 0.00949 µM): 99.3% and 79% and 30.8%
- viability, T/C (compound 0.03 µM): 1.12% and 0.95% and 0.7%
- viability, T/C (compound 0.0949 µM): 0.51% and 0.48% and 0.69%
- viability, T/C (compound 0.3 µM): 0.46% and 0.87% and 0.49%
- IC50 (curve of compound): 16.9 nM and 14.5 nM and 6.7 nM

Compound: CC(C)CC(NC(=O)C(Cc1ccccc1)NC(=O)c1cnccn1)B(O)O (configuration not stated) + Cc1ccccc1N=Nc1ccc(NC(=O)c2ccnn2C)c(C)c1
- IC50 [1]: 15.4 nM
- IC50 [2]: 15.5 nM
- IC50 [3]: 15.4 nM
- IC50 [4]: 15.1 nM
- IC50 [5]: 17.1 nM
- viability, T/C (second compound 0.1 µM, first compound 0.000949 µM): 86%
- viability, T/C (second compound 0.1 µM, first compound 0.003 µM): 93%
- viability, T/C (second compound 0.1 µM, first compound 0.00949 µM): 85.9%
- viability, T/C (second compound 0.1 µM, first compound 0.03 µM): 1.03%
- viability, T/C (second compound 0.1 µM, first compound 0.0949 µM): 0.47%
- viability, T/C (second compound 0.1 µM, first compound 0.3 µM): 0.58%
- viability, T/C (second compound 0.316 µM, first compound 0.000949 µM): 86%
- viability, T/C (second compound 0.316 µM, first compound 0.003 µM): 105%
- viability, T/C (second compound 0.316 µM, first compound 0.00949 µM): 86.9%
- viability, T/C (second compound 0.316 µM, first compound 0.03 µM): 0.65%
- viability, T/C (second compound 0.316 µM, first compound 0.0949 µM): 0.35%
- viability, T/C (second compound 0.316 µM, first compound 0.3 µM): 0.4%
- viability, T/C (second compound 1 µM, first compound 0.000949 µM): 97.9%
- viability, T/C (second compound 1 µM, first compound 0.003 µM): 96.8%
- viability, T/C (second compound 1 µM, first compound 0.00949 µM): 85.3%
- viability, T/C (second compound 1 µM, first compound 0.03 µM): 0.79%
- viability, T/C (second compound 1 µM, first compound 0.0949 µM): 0.52%
- viability, T/C (second compound 1 µM, first compound 0.3 µM): 0.56%
- viability, T/C (second compound 3.16 µM, first compound 0.000949 µM): 86.4%
- viability, T/C (second compound 3.16 µM, first compound 0.003 µM): 90.7%
- viability, T/C (second compound 3.16 µM, first compound 0.00949 µM): 82.9%
- viability, T/C (second compound 3.16 µM, first compound 0.03 µM): 1.35%
- viability, T/C (second compound 3.16 µM, first compound 0.0949 µM): 0.62%
- viability, T/C (second compound 3.16 µM, first compound 0.3 µM): 0.61%
- viability, T/C (second compound 10 µM, first compound 0.000949 µM): 120%
- viability, T/C (second compound 10 µM, first compound 0.003 µM): 116%
- viability, T/C (second compound 10 µM, first compound 0.00949 µM): 98.9%
- viability, T/C (second compound 10 µM, first compound 0.03 µM): 2.93%
- viability, T/C (second compound 10 µM, first compound 0.0949 µM): 0.98%
- viability, T/C (second compound 10 µM, first compound 0.3 µM): 0.8%

Compound: Cn1ncnc1C1c2n[nH]c(=O)c3cc(F)cc(c23)NC1c1ccc(F)cc1 (configuration not stated) + CC(CO)NC(=O)c1cc(-c2ccc(Cl)cc2)nn(-c2cnn(C)c2)c1=O
- IC50 [1]: > 100 nM
- IC50 [2]: > 100 nM
- IC50 [3]: > 100 nM
- IC50 [4]: > 100 nM
- IC50 [5]: > 100 nM
- viability, T/C (second compound 0.1 µM, first compound 0.000316 µM): 102%
- viability, T/C (second compound 0.1 µM, first compound 0.001 µM): 113%
- viability, T/C (second compound 0.1 µM, first compound 0.00316 µM): 104%
- viability, T/C (second compound 0.1 µM, first compound 0.01 µM): 108%
- viability, T/C [6]: 102%
- viability, T/C [7]: 98.9%
- viability, T/C (second compound 0.316 µM, first compound 0.000316 µM): 105%
- viability, T/C (second compound 0.316 µM, first compound 0.001 µM): 102%
- viability, T/C (second compound 0.316 µM, first compound 0.00316 µM): 120%
- viability, T/C (second compound 0.316 µM, first compound 0.01 µM): 103%
- viability, T/C [8]: 86.2%
- viability, T/C [9]: 103%
- viability, T/C (second compound 1 µM, first compound 0.000316 µM): 101%
- viability, T/C (second compound 1 µM, first compound 0.001 µM): 99.3%
- viability, T/C (second compound 1 µM, first compound 0.00316 µM): 102%
- viability, T/C (second compound 1 µM, first compound 0.01 µM): 101%
- viability, T/C [10]: 101%
- viability, T/C [11]: 102%
- viability, T/C (second compound 3.16 µM, first compound 0.000316 µM): 91.5%
- viability, T/C (second compound 3.16 µM, first compound 0.001 µM): 95.3%
- viability, T/C (second compound 3.16 µM, first compound 0.00316 µM): 97.6%
- viability, T/C (second compound 3.16 µM, first compound 0.01 µM): 96.9%
- viability, T/C [12]: 92.9%
- viability, T/C [13]: 84.2%
- viability, T/C (second compound 10 µM, first compound 0.000316 µM): 95.4%
- viability, T/C (second compound 10 µM, first compound 0.001 µM): 81.3%
- viability, T/C (second compound 10 µM, first compound 0.00316 µM): 91%
- viability, T/C (second compound 10 µM, first compound 0.01 µM): 85.5%
- viability, T/C [14]: 80.1%
- viability, T/C [15]: 79.5%

Source: PubChem BioAssay AID1919001 (Molecular Pharmacology Branch, DTP, NCI, 2023)
